In ChEMBL document CHEMBL1125238, “A new class of calcium antagonists. Synthesis and biological activity of 11-[(omega-aminoalkanoyl)amino]-6,6a,7,8,9,10,10a,11-octahydrodibenzo [b,e]thiepin derivatives” (J Med Chem, 1991):

Organism: Rattus norvegicus
Experiment: Calcium antagonistic activity assessed against calcium-induced constriction of potassium-depolarized rat aorta.
Assay type: functional
Details: not given

SMILES	pA2
O=C(CCCN1CCN(c2ccccc2)CC1)N[C@H]1c2ccccc2SC[C@@H]2CCCC[C@H]21.O=C(O)C(=O)O	7.68
O=C(CCCN1CCN(c2ccc(F)cc2)CC1)N[C@H]1c2ccccc2[S+]([O-])C[C@@H]2CCCC[C@H]21 (stereo in doubt; 48)	6.48

Same assay, conditions: Rattus norvegicus, Aorta; read-out: pA2 (converted)

SMILES	Kb
O=C(CCCCCN1CCN(c2ccccc2)CC1)N[C@H]1c2ccccc2SC[C@@H]2CCCC[C@H]21	30.2 nM
O=C(CCN1CCN(c2ccccc2)CC1)N[C@H]1c2ccccc2SC[C@@H]2CCCC[C@H]21	41.7 nM
Cc1ccc(N2CCN(CCCC(=O)N[C@H]3c4ccccc4SC[C@@H]4CCCC[C@H]43)CC2)cc1	70.8 nM
O=C(CCCN1CCN(C/C=C/c2ccccc2)CC1)N[C@H]1c2ccccc2SC[C@@H]2CCCC[C@H]21	75.9 nM
O=C(CN1CCN(c2ccccc2)CC1)N[C@H]1c2ccccc2SC[C@@H]2CCCC[C@H]21	105 nM
O=C(CCCN1CCN(c2ccc(F)cc2)CC1)N[C@H]1c2ccccc2OC[C@@H]2CCCC[C@H]21	138 nM
O=C(CCCN1CCN(Cc2ccc([N+](=O)[O-])cc2)CC1)N[C@H]1c2ccccc2SC[C@@H]2CCCC[C@H]21	19.1 nM
O=C(CCCN1CCN(c2ccc(F)cc2)CC1)N[C@@H]1c2ccccc2SC[C@@H]2CCCC[C@@H]21	18.6 nM
O=C(CCCN1CCN(C(c2ccccc2)c2ccccc2)CC1)N[C@H]1c2ccccc2SC[C@@H]2CCCC[C@H]21	40.7 nM
O=C(CCCN1CCN(Cc2ccccc2)CC1)N[C@H]1c2ccccc2SC[C@@H]2CCCC[C@H]21	15.8 nM
O=C(CCCN1CCN(c2ccc(O)cc2)CC1)N[C@H]1c2ccccc2SC[C@@H]2CCCC[C@H]21	69.2 nM
O=C(CCCN1CCN(c2ccc(Cl)cc2)CC1)N[C@H]1c2ccccc2SC[C@@H]2CCCC[C@H]21	15.1 nM
O=C(CCCN1CCN(c2ccc(F)cc2)CC1)N[C@H]1c2ccccc2SC[C@@H]2CCCC[C@H]21	6.92 nM
O=C(CCCN1CCN(c2ccc(F)cc2)CC1)N[C@H]1c2cc(Cl)ccc2SC[C@@H]2CCCC[C@H]21	81.3 nM
O=C(CCCN1CCN(c2ccc(F)cc2)CC1)N[C@H]1c2ccccc2SC[C@@H]2CCCC[C@@H]21	7.08 nM
O=C(CCCN1CCN(Cc2cccc(F)c2)CC1)N[C@H]1c2ccccc2SC[C@@H]2CCCC[C@H]21	30.2 nM
COc1ccccc1N1CCN(CCCC(=O)N[C@H]2c3ccccc3SC[C@@H]3CCCC[C@H]32)CC1	46.8 nM
O=C(CCCN1CCN(c2cccc3ccccc23)CC1)N[C@H]1c2ccccc2SC[C@@H]2CCCC[C@H]21	57.5 nM

SMILES	Kb
O=C(CCCN1CCN(Cc2ccc(F)cc2)CC1)N[C@H]1c2ccccc2SC[C@@H]2CCCC[C@H]21	57.5 nM
O=C(CCCN1CCN(C(=O)c2ccccc2)CC1)N[C@H]1c2ccccc2SC[C@@H]2CCCC[C@H]21	97.7 nM
O=C(CCCN1CCN(c2ccc(F)cc2)CC1)N[C@H]1c2cc(F)ccc2SC[C@@H]2CCCC[C@H]21	77.6 nM
O=C(CCCN1CCN(Cc2ccc(O)cc2)CC1)N[C@H]1c2ccccc2SC[C@@H]2CCCC[C@H]21	70.8 nM
O=C(CCCCN1CCN(c2ccccc2)CC1)N[C@H]1c2ccccc2SC[C@@H]2CCCC[C@H]21	28.2 nM
O=C(CCCN1CCN(c2ccc(C(F)(F)F)cc2)CC1)N[C@H]1c2ccccc2SC[C@@H]2CCCC[C@H]21	8.91 nM
CN(C(=O)CCN1CCN(c2ccccc2)CC1)[C@H]1c2ccccc2SC[C@@H]2CCCC[C@H]21	148 nM
COc1ccc(N2CCN(CCCC(=O)N[C@H]3c4ccccc4SC[C@@H]4CCCC[C@H]43)CC2)cc1	25.1 nM
O=C(CCCN1CCN(c2cccc(F)c2)CC1)N[C@H]1c2ccccc2SC[C@@H]2CCCC[C@H]21	15.1 nM
O=C(CCCN1CCN(C2CCCCC2)CC1)N[C@H]1c2ccccc2SC[C@@H]2CCCC[C@H]21	45.7 nM
COc1ccc(CN2CCN(CCCC(=O)N[C@H]3c4ccccc4SC[C@@H]4CCCC[C@H]43)CC2)cc1	56.2 nM
COc1ccc2c(c1)[C@H](NC(=O)CCCN1CCN(c3ccc(F)cc3)CC1)[C@@H]1CCCC[C@H]1CS2	17 nM
c1ccc(N2CCN(CCCN[C@H]3c4ccccc4SC[C@@H]4CCCC[C@H]43)CC2)cc1	158 nM
O=C(CCCN1CCN(Cc2ccc(Cl)cc2)CC1)N[C@H]1c2ccccc2SC[C@@H]2CCCC[C@H]21	26.9 nM
O=C(CCCN1CCN(c2ccc(F)cc2)CC1)N[C@@H]1c2ccccc2SC[C@@H]2CCCC[C@H]21	26.9 nM
Cc1ccc2c(c1)[C@H](NC(=O)CCCN1CCN(c3ccc(F)cc3)CC1)[C@@H]1CCCC[C@H]1CS2	141 nM
O=C(CCCN1CCN(CCc2ccccc2)CC1)N[C@H]1c2ccccc2SC[C@@H]2CCCC[C@H]21	72.4 nM
O=C(CCCN1CCN(c2ccc(F)cc2)CC1)N[C@H]1c2ccccc2[S+]([O-])C[C@@H]2CCCC[C@H]21 (stereo in doubt; 49)	324 nM
